One data set has as its system MRSA ATCC 33592. The experiment in a line: MIC determination in broth. Type of data set: cell-based, Staphylococcus aureus. The conditions noted are these: Table S5; STIP3 variants, highest conc. tested 100 μg/mL; cation-adjusted MH broth, ~10^5 CFU/mL, 2-fold dilution series, 37°C, 16 h. As to the method:
(§1) M. luteus ATCC 4698, S. aureus ATCC 29213, a panel of 7 MRSA (ATCC MP-2) strains, which includes ATCC BAA-41, BAA-42, BAA-44, BAA-1683, BAA-2094, BAA-2313, and 33592, and a series of additional bacterial isolates from human and veterinary cases were used in this study (Table S6). Bacterial strains were routinely grown in lysogeny broth (LB: 10 g/L tryptone, 5 g/L yeast extract, 10 g/L NaCl) at 30°C (M. luteus) or 37°C (Staphylococcus spp.) prior to use in specific experiments described below.
(§2) The MICs were measured for bioactive peptides identified from the initial screen. Cation-adjusted Mueller-Hinton (MH) broth was used as the growth medium for MIC determination experiments. Bacterial cultures were diluted to an OD of 5 × 10^−4 (∼10^5 CFU/mL) in 200 μL MH broth mixed with peptides in a 2-fold dilution series arrayed in 96-well plates. Plates were incubated without shaking at 30 or 37°C depending on the organism.

The test system of another data set is MRSA ATCC BAA-1683. The experiment in a line: MIC determination in broth. Type of data set: cell-based, Staphylococcus aureus. The conditions noted are these: STIP3 variants, highest conc. tested 100 μg/mL; cation-adjusted MH broth, ~10^5 CFU/mL, 2-fold dilution series, 37°C, 16 h. As to the method:
as §1, §2

A further data set relates to MRSA ATCC BAA-2094. In words: MIC determination in broth. Type of data set: cell-based, Staphylococcus aureus. To be noted: STIP3 variants, highest conc. tested 100 μg/mL; cation-adjusted MH broth, ~10^5 CFU/mL, 2-fold dilution series, 37°C, 16 h. As to the method: as §1, §2
A further data set concerns MRSA ATCC BAA-2313. In words: MIC determination in broth. In kind it is cell-based, Staphylococcus aureus. To be noted: STIP3 variants, highest conc. tested 100 μg/mL; cation-adjusted MH broth, ~10^5 CFU/mL, 2-fold dilution series, 37°C, 16 h. As to the method:
as §1, §2

In the next data set the test system is MRSA ATCC BAA-41. The experiment in a line: MIC determination in broth. Type of data set: cell-based, Staphylococcus aureus. To be noted: STIP3 variants, highest conc. tested 100 μg/mL; cation-adjusted MH broth, ~10^5 CFU/mL, 2-fold dilution series, 37°C, 16 h. As to the method: as §1, §2
A further data set relates to MRSA ATCC BAA-42. In words: MIC determination in broth. To be noted: STIP3 variants, highest conc. tested 100 μg/mL; cation-adjusted MH broth, ~10^5 CFU/mL, 2-fold dilution series, 37°C, 16 h. In kind it is cell-based, Staphylococcus aureus. As to the method:
as §1, §2

In another data set the test system is MRSA ATCC BAA-44. The experiment in a line: MIC determination in broth. Type of data set: cell-based, Staphylococcus aureus. The conditions noted are these: STIP3 variants, highest conc. tested 100 μg/mL; cation-adjusted MH broth, ~10^5 CFU/mL, 2-fold dilution series, 37°C, 16 h. The procedure:
as §1, §2

A further data set relates to S. aureus ATCC 29213. In words: MIC determination in broth. Type of data set: cell-based, Staphylococcus aureus. To be noted: STIP3 variants, highest conc. tested 100 μg/mL; cation-adjusted MH broth, ~10^5 CFU/mL, 2-fold dilution series, 37°C, 16 h. As to the method: as §1, §2
Another data set has as its system SspA. In words: SspA protease resuspended at 2 mg/mL in 100 mM HEPES (pH 7.8). To be noted: 37°C, up to 5 h.

For the substance “TVKGLVKWILNVVKKFA [STIP3-14, rationally designed STIP3-1 variant]”, the “MIC, S. aureus ATCC 33592 (SCCmec III)” value with MRSA ATCC 33592 stood at 12.5 µg/mL. For the same substance, the “MIC, S. aureus ATCC BAA 1683 (SCCmec IV)” value in the data set on MRSA ATCC BAA-1683 is 25 µg/mL. For the same substance, the “MIC, S. aureus ATCC BAA 2094 (SCCmec V)” value in the data set on MRSA ATCC BAA-2094 came out at 50 µg/mL. Also, the “MIC, S. aureus ATCC BAA 2313 (SCCmec XI)” value in the data set with MRSA ATCC BAA-2313 was 12.5 µg/mL. Moreover, the “MIC, S. aureus ATCC BAA 41 (SCCmec II)” value with MRSA ATCC BAA-41 was 25 µg/mL. The “MIC, S. aureus ATCC BAA 42 (SCCmec VI)” value in the data set on MRSA ATCC BAA-42 was 25 µg/mL. The “MIC, S. aureus ATCC BAA 44 (SCCmec I)” value in the data set with MRSA ATCC BAA-44 was 25 µg/mL. In addition, the “MIC, S. aureus ATCC 29213” value against S. aureus ATCC 29213 is 25 µg/mL.
On to “TVKGLVKWILNVVKKFA-NH2 [STIP3-30, rationally designed STIP3-1 variant, C-terminal amide]”, for which, in the data set on MRSA ATCC 33592, the “MIC, S. aureus ATCC 33592 (SCCmec III)” value stood at 12.5 µg/mL. Besides, in the data set on MRSA ATCC BAA-1683, the “MIC, S. aureus ATCC BAA 1683 (SCCmec IV)” value was found to be 12.5 µg/mL. Further, the “MIC, S. aureus ATCC BAA 2094 (SCCmec V)” value against MRSA ATCC BAA-2094 amounted to 25 µg/mL. Moreover, the “MIC, S. aureus ATCC BAA 2313 (SCCmec XI)” value against MRSA ATCC BAA-2313 was 25 µg/mL. The “MIC, S. aureus ATCC BAA 41 (SCCmec II)” value in the data set with MRSA ATCC BAA-41 was found to be 25 µg/mL. Also, in the data set on MRSA ATCC BAA-42, the “MIC, S. aureus ATCC BAA 42 (SCCmec VI)” value was 25 µg/mL. In addition, the “MIC, S. aureus ATCC BAA 44 (SCCmec I)” value against MRSA ATCC BAA-44 is 12.5 µg/mL. The “MIC, S. aureus ATCC 29213” value in the data set on S. aureus ATCC 29213 was found to be 12.5 µg/mL.
Turning to “TVKKLVKWILKTVKKFA [STIP3-18, rationally designed STIP3-1 variant]”, in the data set with MRSA ATCC 33592, the “MIC, S. aureus ATCC 33592 (SCCmec III)” value turned out to be 100 µg/mL. In addition, in the data set on MRSA ATCC BAA-1683, the “MIC, S. aureus ATCC BAA 1683 (SCCmec IV)” value is given as “> (The > symbol indicates that no inhibition was observed at 100 μg/mL for the STIP3 variants)”. Further, the “MIC, S. aureus ATCC BAA 2094 (SCCmec V)” value with MRSA ATCC BAA-2094 amounted to 100 µg/mL. Besides, the “MIC, S. aureus ATCC BAA 2313 (SCCmec XI)” value against MRSA ATCC BAA-2313 was “> (The > symbol indicates that no inhibition was observed at 100 μg/mL for the STIP3 variants)”. Further, the “MIC, S. aureus ATCC BAA 41 (SCCmec II)” value against MRSA ATCC BAA-41 turned out to be 100 µg/mL. The “MIC, S. aureus ATCC BAA 42 (SCCmec VI)” value against MRSA ATCC BAA-42 is “> (The > symbol indicates that no inhibition was observed at 100 μg/mL for the STIP3 variants)”. Besides, the “MIC, S. aureus ATCC BAA 44 (SCCmec I)” value in the data set with MRSA ATCC BAA-44 stood at 100 µg/mL. In addition, the “MIC, S. aureus ATCC 29213” value against S. aureus ATCC 29213 is 100 µg/mL.
As for “TVKVLVKWILKVVAKFA [STIP3-26, rationally designed STIP3-1 variant]”, the “MIC, S. aureus ATCC 33592 (SCCmec III)” value with MRSA ATCC 33592 was “> (The > symbol indicates that no inhibition was observed at 100 μg/mL for the STIP3 variants)”. Moreover, the “MIC, S. aureus ATCC BAA 1683 (SCCmec IV)” value in the data set with MRSA ATCC BAA-1683 is on record as “> (The > symbol indicates that no inhibition was observed at 100 μg/mL for the STIP3 variants)”. Also, the “MIC, S. aureus ATCC BAA 2094 (SCCmec V)” value in the data set on MRSA ATCC BAA-2094 is “> (The > symbol indicates that no inhibition was observed at 100 μg/mL for the STIP3 variants)”. Further, the “MIC, S. aureus ATCC BAA 2313 (SCCmec XI)” value in the data set on MRSA ATCC BAA-2313 is “> (The > symbol indicates that no inhibition was observed at 100 μg/mL for the STIP3 variants)”. For the same substance, the “MIC, S. aureus ATCC BAA 41 (SCCmec II)” value in the data set on MRSA ATCC BAA-41 is “> (The > symbol indicates that no inhibition was observed at 100 μg/mL for the STIP3 variants)”. Besides, in the data set with MRSA ATCC BAA-42, the “MIC, S. aureus ATCC BAA 42 (SCCmec VI)” value was “> (The > symbol indicates that no inhibition was observed at 100 μg/mL for the STIP3 variants)”. Moreover, the “MIC, S. aureus ATCC BAA 44 (SCCmec I)” value with MRSA ATCC BAA-44 is on record as “> (The > symbol indicates that no inhibition was observed at 100 μg/mL for the STIP3 variants)”. Further, in the data set on S. aureus ATCC 29213, the “MIC, S. aureus ATCC 29213” value was “> (The > symbol indicates that no inhibition was observed at 100 μg/mL for the STIP3 variants)”.
Regarding “TVRALVKWILRTVAKFA [STIP3-20, rationally designed STIP3-1 variant]”, the “MIC, S. aureus ATCC 33592 (SCCmec III)” value in the data set with MRSA ATCC 33592 amounted to 25 µg/mL. Besides, the “MIC, S. aureus ATCC BAA 1683 (SCCmec IV)” value against MRSA ATCC BAA-1683 stood at 25 µg/mL. For the same substance, the “MIC, S. aureus ATCC BAA 2094 (SCCmec V)” value in the data set with MRSA ATCC BAA-2094 stood at 25 µg/mL. In the data set with MRSA ATCC BAA-2313, the “MIC, S. aureus ATCC BAA 2313 (SCCmec XI)” value is 50 µg/mL. In addition, the “MIC, S. aureus ATCC BAA 41 (SCCmec II)” value with MRSA ATCC BAA-41 is 12.5 µg/mL. In the data set with MRSA ATCC BAA-42, the “MIC, S. aureus ATCC BAA 42 (SCCmec VI)” value was 25 µg/mL. The “MIC, S. aureus ATCC BAA 44 (SCCmec I)” value in the data set on MRSA ATCC BAA-44 is 25 µg/mL. For the same substance, the “MIC, S. aureus ATCC 29213” value with S. aureus ATCC 29213 came to 25 µg/mL.
Take “TVRALVRWILRTVARFA [STIP3-23, rationally designed STIP3-1 variant]”: in the data set on MRSA ATCC 33592, the “MIC, S. aureus ATCC 33592 (SCCmec III)” value came to 25 µg/mL. In addition, the “MIC, S. aureus ATCC BAA 1683 (SCCmec IV)” value with MRSA ATCC BAA-1683 was 25 µg/mL. Moreover, the “MIC, S. aureus ATCC BAA 2094 (SCCmec V)” value against MRSA ATCC BAA-2094 was determined as 50 µg/mL. In addition, the “MIC, S. aureus ATCC BAA 2313 (SCCmec XI)” value against MRSA ATCC BAA-2313 was 25 µg/mL. Also, the “MIC, S. aureus ATCC BAA 41 (SCCmec II)” value in the data set on MRSA ATCC BAA-41 stood at 6.25 µg/mL. The “MIC, S. aureus ATCC BAA 42 (SCCmec VI)” value with MRSA ATCC BAA-42 was 50 µg/mL. The “MIC, S. aureus ATCC BAA 44 (SCCmec I)” value in the data set on MRSA ATCC BAA-44 was found to be 25 µg/mL. The “MIC, S. aureus ATCC 29213” value in the data set on S. aureus ATCC 29213 came to 25 µg/mL.
With “TVXALVXWILXTVAXFA [STIP3-22, rationally designed STIP3-1 variant with L-ornithine]”, the “MIC, S. aureus ATCC 33592 (SCCmec III)” value with MRSA ATCC 33592 came to 25 µg/mL. In the data set on MRSA ATCC BAA-1683, the “MIC, S. aureus ATCC BAA 1683 (SCCmec IV)” value is 25 µg/mL. Moreover, the “MIC, S. aureus ATCC BAA 2094 (SCCmec V)” value in the data set with MRSA ATCC BAA-2094 amounted to 25 µg/mL. Further, the “MIC, S. aureus ATCC BAA 2313 (SCCmec XI)” value in the data set on MRSA ATCC BAA-2313 was 100 µg/mL. Besides, in the data set on MRSA ATCC BAA-41, the “MIC, S. aureus ATCC BAA 41 (SCCmec II)” value came to 25 µg/mL. Also, the “MIC, S. aureus ATCC BAA 42 (SCCmec VI)” value against MRSA ATCC BAA-42 was determined as 25 µg/mL. Besides, the “MIC, S. aureus ATCC BAA 44 (SCCmec I)” value with MRSA ATCC BAA-44 was 25 µg/mL. Also, the “MIC, S. aureus ATCC 29213” value against S. aureus ATCC 29213 was found to be 25 µg/mL.
Consider f-MTKDIVETVGGLVKWILDTVKKFA, for which, in the data set on SspA, the not cleaved result is “no SspA cleavage was observed”.

Values taken from PMC8694143 (Microbiology Spectrum, 2021).
